The values that follow are results of earlier work, collected in patent US20220279780A1, “AGRICULTURAL FORMULATION” (ISHIHARA SANGYO KAISHA, LTD., priority 2019, published 2022).

`N#CCNC(=O)c1cnccc1C(F)(F)F` [flonicamid]: the water solubility is recorded as 5,200 ppm.
